Among the data in patent publication US7608627B2, “6-azaindole compound” (Takeda Pharmaceutical Company Limited, priority 2005, dated 2009) are IC50 and melting point values, retold here.

The structures appear in SMILES notation. Structures can show the parent of a compound that is named as a salt.

The first data set deals with T1, IKKβ (Homo sapiens, UniProt O14920).
T1 construct: made in house; host or cells: Sf-21 insect cells, recombinant baculovirus BAC-IKKB (pFASTBAC1)
T1 sequence (O14920 1-756): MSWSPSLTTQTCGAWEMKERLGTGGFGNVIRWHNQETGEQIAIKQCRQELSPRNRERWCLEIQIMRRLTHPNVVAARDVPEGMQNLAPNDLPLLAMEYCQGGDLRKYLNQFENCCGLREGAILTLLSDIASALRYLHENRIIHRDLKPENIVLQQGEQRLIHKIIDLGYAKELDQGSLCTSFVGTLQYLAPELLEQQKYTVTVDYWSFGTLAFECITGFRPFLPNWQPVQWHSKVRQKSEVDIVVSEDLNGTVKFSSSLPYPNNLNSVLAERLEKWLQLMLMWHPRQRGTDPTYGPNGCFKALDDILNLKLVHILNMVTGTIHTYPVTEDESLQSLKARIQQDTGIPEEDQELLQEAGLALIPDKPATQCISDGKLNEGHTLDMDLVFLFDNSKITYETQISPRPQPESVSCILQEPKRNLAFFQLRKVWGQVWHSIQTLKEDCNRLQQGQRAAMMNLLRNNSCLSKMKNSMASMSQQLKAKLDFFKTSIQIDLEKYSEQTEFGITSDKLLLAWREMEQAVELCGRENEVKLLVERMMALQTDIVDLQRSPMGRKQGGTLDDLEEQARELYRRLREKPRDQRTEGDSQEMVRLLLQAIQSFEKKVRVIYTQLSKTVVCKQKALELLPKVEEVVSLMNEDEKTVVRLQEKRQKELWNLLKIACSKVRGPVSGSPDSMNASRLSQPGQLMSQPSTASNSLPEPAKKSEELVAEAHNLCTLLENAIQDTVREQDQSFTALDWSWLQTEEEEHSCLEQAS
In words: Determination of IKKβ inhibitory activity (32P uptake into IκBα substrate). The following applies: active IKKβ 10 ng, IκBα substrate protein, [γ-32P]ATP, 30° C. for 60 min; 50% inhibition of 32P uptake by the acid insoluble fraction. It is filed as biochemical. The procedure: To a reaction solution (37.5 μl, 25 mM HEPES (pH 7.5), 10 mM magnesium acetate) containing active IKKβ (10 ng) obtained in Reference Example 3A and 2.5 μg of IκBα substrate protein solution was added a test compound (2.5 μl) dissolved in DMSO, and the mixture was incubated at 30° C. for 5 min. To the obtained mixture was added 10 μl of ATP solution (2.5 μM ATP, 0.01 μCi [γ-^32P]ATP) and the mixture was allowed to react at 30° C. for 60 min. Then 20% TCA solution (50 μl) was added thereto to stop the reaction. The reaction solution was left standing at 4° C. for 20 min. and acid insoluble fraction was transferred to a GF/C filter (PACKARD JAPAN KK) using a cell harvester (PACKARD JAPAN KK) and washed with 250 mM phosphoric acid solution. The plate after washing was dried at 45° C. for 60 min., 40 μl of MicroSinti 0 (PACKARD JAPAN KK) was added and the radioactivity was determined using TopCount (PACKARD JAPAN KK). The concentration (IC50) of the test compound necessary for 50% inhibition of the amount of ^32P uptake by the acid insoluble fraction was calculated using PRISM 3.0 (GraphPad Software, Inc.).
Take `c1ccc(C(=NOC2CCNC2)c2cc3ccncc3[nH]2)cc1` (centres unmarked) [Example 91, Phenyl (1H-pyrrolo[2,3-c]pyridin-2-yl)methanone O-pyrrolidin-3-yloxime dihydrochloride]: half-maximal inhibition (IC50) required 1700 nM.

Tested on in another data set: not given
Test: not given
Details: not given
`CC(C)C(O)c1cc2ccncc2[nH]1` (centres unmarked) [Example 78, 2-Methyl-1-(1H-pyrrolo[2,3-c]pyridin-2-yl)-1-propanol] displayed a melting point of 140 to 144 °C.

As to `CC(C)CC(O)c1cc2ccncc2[nH]1` (centres unmarked) [Example 79, 3-Methyl-1-(1H-pyrrolo[2,3-c]pyridin-2-yl)-1-butanol], the melting point is 182 to 189 °C (dec.).

`CC(C)C(=O)c1cc2ccncc2[nH]1` [Example 80, 2-Methyl-1-(1H-pyrrolo[2,3-c]pyridin-2-yl)-1-propanone] yielded a melting point of 224 to 228 °C.

On to `CC(C)CC(=O)c1cc2ccncc2[nH]1` [Example 81, 3-Methyl-1-(1H-pyrrolo[2,3-c]pyridin-2-yl)-1-butanone], for which the melting point was in the range of 215 to 218 °C.

In turn, `OC(CCc1ccccc1)c1cc2ccncc2[nH]1` (centres unmarked) [Example 83, 3-Phenyl-1-(1H-pyrrolo[2,3-c]pyridin-2-yl)propan-1-ol] showed a melting point of 162 to 166 °C.

For the compound `OC(Cc1ccccc1)c1cc2ccncc2[nH]1` (centres unmarked) [Example 85, 2-Phenyl-1-(1H-pyrrolo[2,3-c]pyridin-2-yl)ethanol], the melting point was 169 to 172 °C (dec.).

Take `O=C(CCc1ccccc1)c1cc2ccncc2[nH]1` [Example 89, 3-Phenyl-1-(1H-pyrrolo[2,3-c]pyridin-2-yl)propan-1-one]: the melting point was in the range of 246 to 250 °C.

For the compound `CC(C)(C)OC(=O)N1CCC(ON=C(c2ccccc2)c2cc3ccncc3[nH]2)C1` (centres unmarked) [Example 90, tert-Butyl 3-[[[phenyl(1H-pyrrolo[2,3-c]pyridin-2-yl)methylene]amino]oxy]pyrrolidine-1-carboxylate], the melting point was 80 to 82 °C.

Consider `Cl.NCCO/N=C(\c1ccccc1)c1cc2ccncc2[nH]1` [Example 95], for which the melting point is 161 to 165 °C (dec.).

Take `Cc1ccc(C(O)c2cc3ccncc3[nH]2)cc1` (centres unmarked) [Example 98, (4-Methylphenyl)(1H-pyrrolo[2,3-c]pyridin-2-yl)methanol]: the melting point lay in the range of 78 to 82 °C.

For `COc1ccc(C(O)c2cc3ccncc3[nH]2)cc1` (centres unmarked) [Example 99, (4-Methoxyphenyl)(1H-pyrrolo[2,3-c]pyridin-2-yl)methanol], the melting point is 183 to 185 °C (dec.).

Regarding `Cc1ccc(C(=O)c2cc3ccncc3[nH]2)cc1` [Example 100, (4-Methylphenyl)(1H-pyrrolo[2,3-c]pyridin-2-yl)methanone], the melting point was 264 to 268 °C (dec.).

Consider `OC(c1ccc(Cl)cc1)c1cc2ccncc2[nH]1` (centres unmarked) [Example 101, (4-Chlorophenyl)(1H-pyrrolo[2,3-c]pyridin-2-yl)methanol], for which the melting point was in the range of 176 to 180 °C.

The compound `COc1ccc(C(=O)c2cc3ccncc3[nH]2)cc1` [Example 102, (4-Methoxyphenyl)(1H-pyrrolo[2,3-c]pyridin-2-yl)methanone] displayed a melting point of 225 to 228 °C.

For `O=C(c1ccc(Cl)cc1)c1cc2ccncc2[nH]1` [Example 103, (4-Chlorophenyl)(1H-pyrrolo[2,3-c]pyridin-2-yl)methanone], the melting point is 274 to 277 °C (dec.).

Consider `OC(c1ccc(Cl)c(Cl)c1)c1cc2ccncc2[nH]1` (centres unmarked) [Example 113, (3,4-Dichlorophenyl)(1H-pyrrolo[2,3-c]pyridin-2-yl)methanol], for which the melting point was 264 to 266 °C (dec.).

As for `OC(c1ccccn1)c1cc2ccncc2[nH]1` (centres unmarked) [Example 117, (Pyridin-2-yl)(1H-pyrrolo[2,3-c]pyridin-2-yl)methanol], the melting point was in the range of 166 to 169 °C.

`CON=C(c1ccccc1)c1cc2ccncc2[nH]1.Cl` [Example 120]: the melting point was in the range of 202 to 203 °C.

`CON=C(c1ccccc1)c1cc2ccncc2[nH]1.Cl` [Example 121]: the melting point fell in the range of 220 to 222 °C.

On to `O=C(c1ccccn1)c1cc2ccncc2[nH]1` [Example 122, (Pyridin-2-yl)(1H-pyrrolo[2,3-c]pyridin-2-yl)methanone], for which the melting point lay in the range of 219 to 222 °C.

For `O=C(c1ccc(Cl)c(Cl)c1)c1cc2ccncc2[nH]1` [Example 127, (3,4-Dichlorophenyl)(1H-pyrrolo[2,3-c]pyridin-2-yl)methanone], the melting point is 274 to 277 °C (dec.).

As to `O=C(c1ccoc1)c1cc2ccncc2[nH]1` [Example 137, 3-Furyl(1H-pyrrolo[2,3-c]pyridin-2-yl)methanone], the melting point is 232 to 236 °C (dec.).

In general, IC50 refers to the concentration that inhibits the measured activity by half. The low end stands for greater potency, the high end for weaker potency. A word on the melting point: it is the temperature, or range, at which the solid turns liquid.
